Measurements: patent publication US6761896B1, “Skin cosmetic care system and method” (Unilever Home & Personal Care USA, division of Conopco, Inc., priority 1998, dated 2004)
Like-named read-outs stand apart in the source and are kept apart here.

Legend:
[1] = test system: pig epidermal cells; experiment: DNA synthesis (3H-thymidine) of pig skin organ cultures, epidermis; assay type: cell-based; settings: for activity at 20 µM / activity at 200 µM / activity at 2000 µM: Sus scrofa, read-out: DNA synthesis AS % OF CONTROL
Procedure: (§1) Freshly excised 2-3 week old piglet skins were obtained from Buckshire Farms, Pa. The pig skins were washed exhaustively first with soap and then with 10× antibiotic containing medium (penicillin, streptomycin). The pig skins were then dermatomed at 200 microns thickness. Seven (7) mm punch biopsies were made from these washed pig skins. The biopsies are then washed again with the 10× antibiotic medium and finally with normal DMEM (2 washes). Three (3) biopsies were incubated in each transwell plates, epidermal side up, with 1 ml of serum free DMEM fed from the bottom of the plates. Experiments were started 3 days after the biopsies were equilibrated under these conditions. Three (3) days after equilibrating the pig skin organ cultures prepared as described above, the medium was removed, 1 ml of fresh medium was added, and the wells were treated with different concentrations of lactic acid by adding from a 100 fold concentrated stock in water, directly into the medium. Simultaneous with the addition of lactic acid, selected cultures were also exposed to the South or North pole of a bar magnet or to the Bioflex magnet. The magnets were placed on top of the culture dish to expose the epidermis directly (the organ culture is carried out with the epidermis side on top). Three (3) days later, medium was changed, lactic acid was re-added, and 10 uCi ^3H-thymidine was added to each well. Plates were incubated for a further 24 hrs. At the end of the incubation period, biopsies were removed, washed in PBS for 1 hr with shaking, and incubated overnight in 10 ml of 2M sodium bromide with shaking to split the epidermis from the dermis. The biopsies were washed with PBS, and the epidermis was peeled off from dermis carefully using a scalpel. The epidermis and dermis were digested with 1 ml of 0.5N NaOH overnight at 50 C, 200 ul was used for counting the radioactivity. The DNA synthesis rate was calculated as cpm/7 mm punch biopsy for dermis or epidermis and in some experiments expressed also as % of controls. All organ culture experiments were conducted with at least 6 replicates, and the mean+/−standard deviation was calculated for statistical analysis using Students t-test.

[2] = test system: pig skin dermis; experiment: DNA synthesis (3H-thymidine) of pig skin organ cultures, dermis; assay type: cell-based
Procedure: as §1, with “t-test. In example 7, dermal proliferation was measured as a function of lactic acid and magnetic pole treatment.” for “t-test.”

[3] = Example 5, 0.02 mM LA + South pole of bar magnet
[4] = Example 5, 0.02 mM LA, no magnet
[5] = Example 5, 0.2 mM LA + South pole of bar magnet
[6] = Example 5, 0.2 mM LA, no magnet
[7] = Example 5, 2.0 mM LA + South pole of bar magnet
[8] = Example 5, 2.0 mM LA, no magnet
[9] = Example 6, 0.2 mM LA + North pole
[10] = Example 6, 0.2 mM LA + South pole
[11] = Example 6, 0.2 mM LA, no magnet
[12] = Example 7, dermis, LA + North pole
[13] = Example 7, dermis, LA + South pole

CC(O)C(=O)O (centres unmarked) [LA, lactic acid]
DNA SYNTHESIS (CPM/BIOPSY) MEAN +/- STD [1, 3]: 7915 +/− 2807 CPM/BIOPSY | DNA SYNTHESIS (CPM/BIOPSY) MEAN +/- STD [1, 4]: 4670 +/− 497 CPM/BIOPSY | DNA SYNTHESIS (CPM/BIOPSY) MEAN +/- STD [1, 5]: 8402 +/− 512 CPM/BIOPSY | DNA SYNTHESIS (CPM/BIOPSY) MEAN +/- STD [1, 6]: 5030 +/− 958 CPM/BIOPSY | epidermal proliferation, % over control ([1]; Example 5, 2 mM LA + South pole): 165% | DNA SYNTHESIS (CPM/BIOPSY) MEAN +/- STD [1, 7]: 11523 +/− 2123 CPM/BIOPSY | synergy of LA and South pole on epidermal proliferation ([1]; Example 5, 2 mM LA + South pole vs additive response): Synergies were observed | epidermal proliferation, % over control ([1]; Example 5, 2 mM LA alone): 43% | DNA SYNTHESIS (CPM/BIOPSY) MEAN +/- STD [1, 8]: 6216 +/− 1035 CPM/BIOPSY | effect on epidermal proliferation ([1]; Example 5, 0.02 and 0.2 mM lactic acid, no magnet): no significant effect | DNA SYNTHESIS (CPM/BIOPSY) MEAN +/- STD [1, 9]: 69726 +/− 29913 CPM/BIOPSY | proliferative response, % over control [1, 9]: 112% | synergy of LA with North pole on epidermal proliferation ([1]; Example 6, 0.2 mM LA + North pole vs north alone control): not synergistic | DNA SYNTHESIS (CPM/BIOPSY) MEAN +/- STD [1, 10]: 81393 +/− 11738 CPM/BIOPSY | proliferative response, % over control [1, 10]: 146% | synergy of LA with South pole on epidermal proliferation ([1]; Example 6, 0.2 mM LA + South pole vs LA alone or South pole alone): synergistic | DNA SYNTHESIS (CPM/BIOPSY) MEAN +/- STD [1, 11]: 41076 +/− 24767 CPM/BIOPSY | effect on epidermal proliferation ([1]; Example 6, 0.2 mM Lactic acid alone): no significant effect | activity at 20 µM [1, 3]: 182% | activity at 20 µM [1, 4]: 107% | activity at 200 µM [1, 5]: 193% | activity at 200 µM [1, 6]: 115% | activity at 2000 µM [1, 7]: 265% | activity at 2000 µM [1, 8]: 143% | activity at 200 µM [1, 9]: 211% | activity at 200 µM [1, 10]: 246% | activity at 200 µM [1, 11]: 124% | DNA SYNTHESIS (CPM/BIOPSY) MEAN +/- STD ([2]; Example 7, dermis, 0.2 mM LA, no magnet): 15306 +/− 4656 CPM/BIOPSY | DNA SYNTHESIS (CPM/BIOPSY) MEAN +/- STD [2, 12]: 16886 +/− 2227 CPM/BIOPSY | DNA synthesis AS % OF CONTROL [2, 12]: 178% | DNA SYNTHESIS (CPM/BIOPSY) MEAN +/- STD [2, 13]: 17244 +/− 4259 CPM/BIOPSY | DNA synthesis AS % OF CONTROL [2, 13]: 182% | synergy of magnet with lactic acid in the dermis ([2]; Example 7, combinations of magnet with lactic acid): no synergy | effect on dermal proliferation ([2]; Example 7, lactic acid alone): significant stimulation | activity at 200 µM ([2]; Sus scrofa, Example 7, dermis, 0.2 mM LA, no magnet, read-out: DNA synthesis AS % OF CONTROL): 162%
